Data published in patent publication US20040235942A1 (priority 2003, published 2004).

Key:
[1] = requires twice daily dosing; cited from earlier work
[2] = system: patients with idiopathic venous thromboembolism; assay: PREVENT trial: recurrent venous thromboembolism; format: in vivo, human
Source text: (§1) All participants were followed for recurrent VTE, major bleeding events, and all-cause mortality.
(§2) All index events were confirmed by objective criteria at the central Clinical Coordinating Center based upon venography, compression ultrasound or MRI reports (for deep vein thrombosis) or by ventilation/perfusion scans, angiograms, or chest computed tomography scans (for pulmonary embolism). Idiopathic events were defined as those not occurring within 90 days of surgery, trauma, or a diagnosis of metastatic cancer. […] Every patient gave written informed consent and the study protocol was approved by each institutional review board.
The run-in phase was also used to exclude individuals with less than 80 percent compliance.
(§3) Randomization was stratified by clinical site, time since index event (≦6 months, >6 months) and by whether the index event was the patient's first ever VTE. All participants were then followed with office visits once every two months that included blinded INR evaluations and dose adjustments. To further ensure blinding, sham dose adjustments were made in the placebo group.
(§4) As PREVENT was specifically designed to evaluate clinically relevant recurrent thromboembolic events, no surveillance for asymptomatic thrombosis was undertaken. Rather, at each visit the occurrence of any incident clinical events since the last visit two months earlier was evaluated. All endpoints were reviewed by a committee of physicians unaware of study drug assignment. The endpoint of recurrent deep vein thrombosis was confirmed if there was a positive venography study, doppler compression ultrasound, or MRI. Events documented by clinical diagnosis alone were not confirmed. […] Major hemorrhage was defined as any bleeding episode that led either to hospitalization or transfusion.
Comparisons between the warfarin and placebo groups in the distributions of continuous variables used Wilcoxon rank sum tests; for categorical variables, comparisons used Chi-square tests. The primary analysis was an intention-to-treat comparison of the difference between time to first confirmed recurrent VTE after randomization in the two treatment arms using a two-sided log-rank test. The method of Kaplan and Meier was used to estimate the probability of recurrence by time within treatment groups. Estimation of the number of patients needed to treat (NNT) to prevent one recurrent event was based on rates at one year. We used the proportional hazards model for estimation of the relative hazard of recurrent VTE associated with low-intensity warfarin treatment and obtained confidence intervals from this model. The hypothesis of a varying effect of treatment over time was tested in a proportional hazards model including an interaction of treatment with time. Tests and estimates of treatment effects on the composite endpoint used the same methods.
The primary pre-specified subgroup analysis evaluated the effect of treatment separately in persons with and without either factor V Leiden or the prothrombin mutation. The hypothesis of a different effect of treatment by genetic status was tested in a proportional hazards model including the interaction of treatment with the presence of either factor V Leiden or G20210A prothrombin mutation. Other descriptive comparisons within subgroups used the same methods.

[3] = system: patients with idiopathic venous thromboembolism; assay: PREVENT trial: bleeding, mortality, stroke, cancer, myocardial infarction, drug discontinuation; format: in vivo, human
Source text: as §1, §2, §3, §4
(§5) As an index of net clinical benefit, we defined on an a priori basis a composite endpoint of recurrent VTE, major hemorrhage, and all-cause mortality. Incident stroke events were also monitored. These were classified as hemorrhagic or thromboembolic on the basis of clinical records or CT/MRI scanning which were available for all episodes. To avoid double-counting, hemorrhagic strokes were considered as major hemorrhages in analyses using the combined endpoint of recurrent thrombosis, major hemorrhage, and all-cause mortality.
The method of Kaplan and Meier was used to estimate the probability of recurrence by time within treatment groups. Estimation of the number of patients needed to treat (NNT) to prevent one recurrent event was based on rates at one year. […] The hypothesis of a varying effect of treatment over time was tested in a proportional hazards model including an interaction of treatment with time. Tests and estimates of treatment effects on the composite endpoint used the same methods.

[4] = system: patients with idiopathic venous thromboembolism; assay: PREVENT trial: composite endpoint of recurrent VTE, major hemorrhage and all-cause mortality; format: in vivo, human
Source text: as §1, §5
Comparisons between the warfarin and placebo groups in the distributions of continuous variables used Wilcoxon rank sum tests; for categorical variables, comparisons used Chi-square tests. The primary analysis was an intention-to-treat comparison of the difference between time to first confirmed recurrent VTE after randomization in the two treatment arms using a two-sided log-rank test. The method of Kaplan and Meier was used to estimate the probability of recurrence by time within treatment groups. Estimation of the number of patients needed to treat (NNT) to prevent one recurrent event was based on rates at one year. […]

[5] = system: International Normalized Ratio; assay: PREVENT trial: blinded INR evaluation (CoaguChek fingerstick); format: in vivo, human; conditions: during follow-up; interquartile range 1.4 to 2.0
Source text: During the run-in, at randomization, and throughout follow-up, all INR assessments at each study site were made using specially designed fingerstick devices with an identical thromboplastin [International Sensitivity Index 2.0] (CoaguChek, Roche Diagnostics, Indianapolis, Ind.). These devices were altered electronically to provide a coded study value which was transmitted to the Data Coordinating Center. All dose adjustments were made in a blinded manner using a simple clinical algorithm (Appendix A).
as §3

[6] = system: factor VII activity and prothrombin fragment F1+2; conditions: in vivo; cited from earlier work

CCOC(=O)CN[C@@H](C(=O)N1CC[C@H]1C(=O)NCc1ccc(/C(N)=N\O)cc1)C1CCCCC1 [ximelagatran]
half-life [1]: relatively short

CC(=O)CC(c1ccccc1)c1c(O)c2ccccc2oc1=O (centres unmarked) [low-intensity warfarin, warfarin]
reduction in risk of recurrent VTE ([2]; analysis by use or non-use of long-term anticoagulation at the time of the recurrent event): 81% | participants with recurrent VTE after cessation of study drug ([2]; in vivo): 7 | Recurrent VTE, Rate ([2]; intention-to-treat): 2.6 events per 100 person years | reduction in risk of recurrent VTE ([2]; men): 53% | Recurrent VTE, Rate ([2]; subgroup: Factor V Leiden or Prothrombin Mutation absent): 2.7 events per 100 person years | Recurrent VTE, Rate ([2]; subgroup: Factor V Leiden or Prothrombin Mutation present): 2.2 events per 100 person years | Recurrent VTE, Rate ([2]; subgroup: age 30-44 years): 3.3 events per 100 person years | Recurrent VTE, Rate ([2]; subgroup: age 45-64 years): 1.7 events per 100 person years | Recurrent VTE, Rate ([2]; subgroup: age 65-89 years): 3.9 events per 100 person years | Recurrent VTE, Rate ([2]; subgroup: men): 4.0 events per 100 person years | Recurrent VTE, Rate ([2]; subgroup: women): 1.1 events per 100 person years | risk reduction of recurrent VTE ([2]; those without factor V Leiden or the prothrombin mutation): 58% | Recurrent VTE, Rate ([2]; time after randomization >1 year): 2.5 events per 100 person years | Recurrent VTE, Rate ([2]; time after randomization ≦1 year): 2.7 events per 100 person years | patients needed to be treated to prevent one recurrent event ([2]; treated for one year, based on rates at one year): 14 patients | risk reduction of recurrent VTE ([2]; versus placebo, intention-to-treat): 64% | reduction in risk of recurrent VTE ([2]; women): 80% | Cancer, Rate ([3]; in vivo): 0.7 events per 100 person years | Deaths, Rate ([3]; in vivo): 0.7 events per 100 person years | Major bleeding, Rate ([3]; in vivo): 0.9 events per 100 person years | Myocardial Infarction, Rate ([3]; in vivo): 0.5 events per 100 person years | confirmed strokes ([3]; in vivo): 1 | patients in whom study drug was discontinued before completion of follow-up ([3]; in vivo): 62 patients | major bleeds that were gastrointestinal ([3]; of 5 major bleeds): 3 | major bleeds that were hematuria in the setting of renal calculus removal ([3]; of 5 major bleeds): 1 | major bleeds that were lower-extremity hematoma ([3]; of 5 major bleeds): 1 | major hemorrhage requiring transfusion of packed red blood cells ([3]; patient was receiving full-dose warfarin at the time of the bleed): 1 | Composite Endpoint, Rate ([4]; first VTE, major bleed, or death): 4.1 events per 100 person years | reduction in composite study endpoint of recurrent VTE, major hemorrhage, or death ([4]; versus placebo): 48% | median INR [5]: 1.7 | reducing biochemical markers of coagulation such as factor VII activity and levels of prothrombin fragment F1+2 [6]: effective
